These results are taken from patent publication US9249115B2, “N,N1 substituted piperazines having combined antiaggregant, anticoagulant and vasodilatory activity, and method for producing same” (Vertex Closed Joint Stock Company, priority 2011, dated 2016).

For assay [1], the system named is Collagen-induced thrombocyte aggregation. Nature of the assay: Collagen-induced thrombocyte aggregation, donor human thrombocyte enriched plasm. Particulars: collagen inductor; for MA, %: human thrombocyte plasm. The assay is classed as cell-based. An outline of the steps:
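Citrated donor platelet-rich plasma normalized to 200-250×10^9/L was preincubated with compound in Tris-HCl pH 7.4 for 5 min at 37° C. before adding collagen diluted to 10 µg/ml. Aggregation was followed turbidimetrically for 3 min at 1200 rpm stirring, as maximum amplitude (% transmittance relative to platelet-poor plasma).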

Assay [2] relates to thrombocyte depleted plasm coagulation. Briefly: Activated partial thromboplastin time (APTT), anticoagulant properties. The assay is classed as biochemical, human. Particulars: for APTT: thrombocyte depleted plasm.
Another assay has as its system mesentery venules. Briefly: Vasodilator properties, microcirculatory vessel responsiveness to noradrenalin, venules. In kind it is in vivo, Wistar male rats. The method, then:
Vasodilator properties of N,N′-substituted piperazines were evaluated according to their influence on microcirculatory vessel responsiveness.
The studies were done on Wistar male rats with mass of 300±30 g (laboratory animals nursery “Rappolovo”, RAMS). The animals were kept with unlimited food (standard ration for laboratory rats K-120 by <<Inform-korm>>, Russia) and water allowance.
The solutions of N,N′-substituted piperazines and physiological (control) solution were introduced via bolus injection within 1 min into caudal vein of non-anaesthetized animals according to the dosage of 5.0 ml per 1 kg. Immediately after the introduction the animals were put in separate standard cages for observation.
In 30 min after the injection the animals were anaesthetized (thiopental sodium, 60 mg/kg intraperitoneally). The loop of small intestine adjoined to mesoappendix was retrieved through inferomedian incision. To study microcirculation in mesentery venules and arterioles in transmitted light the rat was placed on thermostated microscope objective table. The application of noradrenalin solution (Aguettant, 2 mg/ml, Laboratoire AGUETTANT, France) was done directly on the mesentery (Furness J. B., Marshall J. M., 1974; Yantareva L. I., 2004).
The study of microcirculatory vessels was done with LUMAM I1 microscope (LOMO, Russia). The recording of video data was done with the camera (Optics and Electronics ISTA Ltd) attached to a personal computer. The processing of data was done with Video-Test 4.0 software (ISTA Ltd., Russia). The diameter of the vessel wall (D, m) before and after the application of noradrenalin and the starting time of blood flow slowdown induced by noradrenalin were measured (the measurements were done for 1 min after the application).

Setting [3] is: 0.01 mmol/kg, noradrenalin 10^−6 g/ml.
The mark [4] stands for this setting: 0.025 mmol/kg, noradrenalin 10^−7 g/ml.

As for `O=C(O)/C=C/c1ccc(Cn2ccnc2)cc1` [Ozagrel, reference compound], the “MA, %” value in assay [1] (0.5 mmol/L) is 74.3 ± 7.9%; in assay [1] (1.25 mmol/L), 64.1 ± 12.0%; in assay [1] (2.5 mmol/L), 60.0 ± 2.5%; in assay [1] (5.0 mmol/L) it was 54.0 ± 12.9%; in assay [1] (7.5 mmol/L), 34.2 ± 11.2%. For the same molecule, the inhibition at 500 µM in assay [1] (Homo sapiens, 0.5 mmol/L, read-out: (MA0-MAx): MA0 * 100%) stood at 3.1%. Besides, in assay [1] (Homo sapiens, 1.25 mmol/L, read-out: (MA0-MAx): MA0 * 100%), the inhibition at 1250 µM was determined as 16.4%. Also, the inhibition at 2500 µM in assay [1] (Homo sapiens, 2.5 mmol/L, read-out: (MA0-MAx): MA0 * 100%) was determined as 21.8%. The inhibition at 5000 µM in assay [1] (Homo sapiens, 5.0 mmol/L, read-out: (MA0-MAx): MA0 * 100%) was determined as 29.6%. Besides, the inhibition at 7500 µM in assay [1] (Homo sapiens, 7.5 mmol/L, read-out: (MA0-MAx): MA0 * 100%) was determined as 55.4%. The “(APTTx-APTT0): APTT0 * 100%” value in assay [2] (2.5 mmol/L) is recorded as 7.2%; in assay [2] (4.1 mmol/L), 10.0%; in assay [2] (8.3 mmol/L), 19.9%; in assay [2] (12.5 mmol/L), 29.8%. Besides, the “APTT” value was 51.8 ± 1.7 s in assay [2] (2.5 mmol/L), 53.1 ± 3.0 s in assay [2] (4.1 mmol/L), 57.9 ± 2.5 s in assay [2] (8.3 mmol/L) and 62.7 ± 2.1 s in assay [2] (12.5 mmol/L). Further, the “% of vessel constriction” value in the assay on mesentery venules (setting [3]) came out at 44%; with mesentery venules (setting [4]) it was 27%. Besides, in the assay on mesentery venules (setting [3]), the “Blood flow slowdown, Latent period of slowdown” value is listed as 32 ± 4 s. The “Blood flow slowdown, Latent period of slowdown, s” value in the assay on mesentery venules (setting [4]) was “No slowdown”.
